Assay results reported in patent US12162819B2, “Ionizable lipid compounds” (Beijing Jitai Pharmaceutical Technology Co., Ltd., priority 2022, dated 2024).

Key:
[1] = Encapsulation efficiency of lipid nanoparticles, Quant-It RiboGreen RNA Assay; format: physicochemical; settings: lipid nanoparticle with the cationic lipid, luciferase mRNA
Method: (§1) Lipid nanoparticles were prepared by (1) dissolving and mixing ionizable lipid compounds, cholesterol, phospholipids and polyethylene glycolated lipids in ethanol at (molar percentages) 50%, 38.5%, 10% and 1.5%, respectively; (2) dissolving the mRNA active ingredient in 25 mM sodium acetate solution (pH=4.5); (3) using an automated high-throughput microfluidic system to mix the organic phase containing the lipid mixture and the aqueous phase containing the mRNA component in the flow ratio range of 1:1 to 1:4 at a mixing speed of 10 mL/min to 18 mL/min; (4) the prepared lipid nanoparticles (N/P ratio of 6) were diluted with phosphate buffer solution and the nanoparticle solutions were ultrafiltered to the original preparation volume using ultrafiltration tubes (purchased from Millipore) with a cut-off molecular weight of 30 kDa; and (5) the obtained nanoparticles were filtered through a sterile 0.2 μm filter membrane and then stored in a sealed glass vial at low temperature.
(§2) The particle size and particle size dispersity index (PDI) of the prepared lipid nanoparticles were measured using a Zetasizer Pro (purchased from Malvern Instruments Ltd) and a DynaPro NanoStar (purchased from Wyatt) dynamic light scattering instrument. The degree of RNA encapsulation by lipid nanoparticles was characterized by the Encapsulation Efficiency %, which reflects the degree of binding of lipid nanoparticles to RNA fragments. This parameter was measured by the method of Quant-It™ RiboGreen RNA Assay (purchased from Invitrogen). Lipid nanoparticle samples were diluted in TE buffer (10 mM Tris-HCl, 1 mM EDTA, pH=7.5). A portion of the sample solution was removed, to which 0.5% Triton (Triton X-100) was added, and then allowed to stand at 37° C. for 30 minutes. Immediately after the addition of RIBOGREEN® reaction solution, the fluorescence values were read on a Varioskan LUX multifunctional microplate reader (purchased from Thermofisher) at 485 nm for absorption and 528 nm for emission to give the encapsulation efficiency values.

[2] = system: C57BL/6 mice; experiment: In vivo bioluminescence assay of lipid nanoparticles encapsulated with luciferase mRNA in mice; settings: for in vivo delivery efficiency compared with the molecule without tetramethyl: LNP with luciferase mRNA in mice, compound 20 vs. D1, compound 46 vs. D2; for Total photon count in vivo at 6 hours after administration (Total Flux): C57BL/6 mice, intravenous, single dose 0.5 mg/kg luciferase mRNA in LNP, group mean
Method: as §1
The delivery effect and safety of nanoparticles encapsulated with luciferase mRNA (Trilink, L-7202) in mice were evaluated. The test mice were SPF-grade C57BL/6 mice, female, 6-8 weeks old, weighing 18-22 g, and were purchased from SPF (Beijing) Biotechnology Co., Ltd. All animals were acclimatized for more than 7 days prior to the experiment, and had free access to food and water during the experiment. The conditions include alternating light and dark for 12/12 h, the indoor temperature of 20-26° C. and the humidity of 40-70%. The mice were randomly grouped. The lipid nanoparticles encapsulated with luciferase mRNA prepared above were injected into mice by intravenous administration at a single dose of 0.5 mg/kg mRNA, and the mice were subjected to in vivo bioluminescence assay using a Small Animal In Vivo Imaging System (IVIS LUMINA III, purchased from PerkinElmer) at 6 h after administration. The assay was performed as follows: D-luciferin solution was prepared in saline at a concentration of 15 mg/mL, and each mouse was given the substrate by intraperitoneal injection. At ten minutes after administration of the substrate, the mice were anesthetized in an anesthesia chamber with isoflurane at a concentration of 2.5%. The anesthetized mice were placed in IVIS for fluorescence imaging, and data acquisition and analysis were performed on the concentrated distribution area of fluorescence.
The in vivo delivery efficiency of lipid nanoparticle carriers was expressed as the mean values of fluorescence intensity and total photon count in different animals within the same subject group, as shown in Table 5. Higher values of fluorescence intensity and total photon count indicate higher in vivo delivery efficiency of this mRNA fragment by lipid nanoparticles. The lipid nanoparticles containing the cationic lipids of the present disclosure have good in vivo delivery efficiency.

[3] = Particle size and PDI of lipid nanoparticles by dynamic light scattering; format: physicochemical; settings: lipid nanoparticle with the cationic lipid, cholesterol, DSPC, DMG-PEG2000 (50/38.5/10/1.5 mol%), luciferase mRNA, N/P 6
Method: as §1, §2

[4] = system: human embryonic kidney cells 293 (HEKi293T cells); experiment: CCK-8 cytotoxicity testing of lipid nanoparticle-treated cells; format: cell-based; set-up: concentration or dose not given beside the values; settings: HEK293T cells, LNP-treated 24 h, CCK-8, ratio to PBS negative control
Method: as §1
(§3) The delivery effect and safety of nanoparticles encapsulated with luciferase mRNA were evaluated at the cellular level in vitro. The cells used in the assay were human embryonic kidney cells 293 (HEKi293T cells) cultured in DMEM (Dulbecco's Modified Eagle Medium) (purchased from Thermo Fisher) containing […] fetal bovine serum and […] penicillin-streptomycin double antibiotics at a indoor temperature of 37° C. and a CO2 concentration of […]. The cells were uniformly dispersed and spread in 48-well plates, and incubated in the incubator for 24 h. Then a solution of the lipid nanoparticles encapsulated with luciferase mRNA were added. After 24 h, the cells were lysed, and the intracellular expression intensity and relative light units (RLU) of luciferase in each type of lipid nanoparticles were measured with a luciferase detection reagent (purchased from Promega). The higher the intensity of expression, the higher the delivery efficiency of the lipid material at the cellular level. Meanwhile, CCK-8 reagent (purchased from DOJINDO) was used in cytotoxicity testing for the parallel lipid nanoparticle-treated cell groups after 24 hours. In the test, the group of cells to which only PBS was added was used as a negative control. The procedure was as follows: after the addition of CCK-8 solution, the cells were left to stand in an incubator at 37° C. for 4 h. The absorbance values were read on a multifunctional microplate reader at an absorbance band of 450 nm. The ratio of the absorbance value of the nanoparticle-treated cells to that of the negative control was used as a characterization parameter for cell viability.

[5] = system: human embryonic kidney cells 293 (HEKi293T cells); experiment: In vitro delivery of luciferase mRNA nanoparticles, luciferase expression (RLU); format: cell-based; settings: HEK293T cells, LNP with luciferase mRNA, 24 h
Method: as §1, §3

Compound	Encapsulation efficiency (%) [1]	in vivo delivery efficiency compared with the molecule without tetramethyl [2]	Particle size (nm) [3]	Particle size dispersity (PDI) [3]	Cell viability (%) [4]	Luciferase luminescence (RLU) [5]	Total photon count in vivo at 6 hours after administration (Total Flux) [2]
CCCCCCCCCOC(=O)C(C)(C)CCCCCC(CCCCCC(C)(C)C(=O)OCCCCCCCCC)OC(=O)CCCN(C)C [Compound 20]	71.93%	significantly increased in vivo delivery efficiency	99.61 nm	0.10			
CCCCCCCCCOC(=O)C(C)(C)CCCCCC(CCCCCC(C)(C)C(=O)OCCCCCCCCC)OC(=O)CCCCCN(C)C [Compound 32]	99.02%		116.61 nm	0.07	96.25%	6.99E+06 RLU	
CCCCCCCCCSC(=O)C(C)(C)CCCCCC(CCCCCC(C)(C)C(=O)SCCCCCCCCC)OC(=O)CCCN(C)C [Compound 37]	89.07%		92.18 nm	0.03	97.48%	1.04E+07 RLU	
CCCCCCCCCOC(=O)C(C)(C)CCCCCC(CCCCCC(C)(C)C(=O)SCCCCCCCCC)OC(=O)CCCN(C)C (stereo not drawn) [Compound 41]	93.91%		104.27 nm	0.05	104.91%	1.23E+07 RLU	
CCCCCCCCCOC(=O)C(C)(C)CCCCCC(CCCCCC(C)(C)C(=O)OCC(CCCCC)CCCCCCC)OC(=O)CCCN(C)C (stereo not drawn) [Compound 46]	95.68%	significantly increased in vivo delivery efficiency	97.30 nm	0.09			
CCCCCCCCCOC(=O)CC(C)(C)CCCCC(CCCCC(C)(C)CC(=O)OCCCCCCCCC)OC(=O)CCCN(C)C [Compound 97]	93.72%		157.00 nm	0.25			3.37E+09
CCCCCCCCCCOC(=O)C(C)(C)CCCCCC(CCCCCC(C)(C)C(=O)OCCCCCCCCCC)OC(=O)C1CCN(C)CC1 [Compound 99]	90.69%		139.99 nm	0.05			5.30E+09
CCCCCCCCOC(=O)C(C)(C)CCCCCC(CCCCCC(C)(C)C(=O)OCCCCCCCC)OC(=O)C1CCN(C)CC1 [Compound 100]	83.29%		118.19 nm	0.07	104.67%	1.98E+06 RLU	
CCCCCCCCCSC(=O)C(C)(C)CCCCCC(CCCCCC(C)(C)C(=O)SCCCCCCCCC)OC(=O)CC1CCN(CCO)CC1 [Compound 110]	92.65%		97.59 nm	0.01			2.06E+08
CCCCCCCCCOC(=O)C(C)(C)CCCCCC(CCCCCC(C)(C)C(=O)OCCCCCCCCC)OC(=O)CC1CCN(CCO)CC1 [Compound 113]	94.77%		112.65 nm	0.03			3.59E+08
CCCCCCCCCOC(=O)C(C)(C)CCCCCC(CCCCCC(C)(C)C(=O)OCC(CCCCC)CCCCCCC)OC(=O)CC1CCN(CCO)CC1 (stereo not drawn) [Compound 114]	93.41%		72.32 nm	0.04			1.06E+08
CC(C)CCCCCCCOC(=O)CCC(C)(C)CCCC(CCCC(C)(C)CCC(=O)OCCCCCCCC(C)C)OC(=O)CCCN(C)C [Compound 127]	62.35%		83.01 nm	0.05			3.59E+10
CCCCC/C=C\C/C=C\CCCCCCCCC(CCCCCCCC/C=C\C/C=C\CCCCC)OC(=O)CCCN(C)C [DLin-MC3-DMA, reference compound]	95.62%		96.83 nm	0.04	97.84%	2.95E+06 RLU	
